In PubChem BioAssay AID2060605 (Molecular Pharmacology Branch, DTP, NCI, 2025):
Values joined by “and” are separate entries in the source; they are usually repeats but may differ in a detail not shown here. Equal entries are not always repeated.

System: 947758-054-R-J2-PDC spheroid growth, percent test/control
Experiment: Anticancer human tumor 947758-054-R-J2-PDC patient-derived colon adenocarcinoma cell line growth inhibition [CLK]
Settings: spheroids with HUVEC and MSC; for viability, T/C: stronger effect = lower value
In short: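 Multi-cell-type spheroids combined patient-derived tumor cells with HUVEC endothelial cells and human mesenchymal stem cells. Paired agents were dosed in half-log steps down from about clinical Cmax, or from 10 microM where Cmax was unknown.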

[1] = curve of first compound, second compound 0.0316 µM
[2] = curve of first compound, second compound 0.1 µM
[3] = curve of first compound, second compound 0.316 µM
[4] = curve of first compound, second compound 1 µM
[5] = curve of first compound, second compound 3.16 µM
[6] = curve of first compound, second compound 10 µM
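Also: spheroids exposed to compounds for one week before readout.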
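For viability, T/C in this document: 100% = DMSO vehicle control wells.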

For `C=CC(=O)Nc1cc(Nc2nccc(-c3cn(C)c4ccccc34)n2)c(OC)cc1N(C)CCN(C)C` + CN1CCN(c2cc(C(=O)Nc3cc4cc(-c5cnn(C)c5)ccc4cn3)ccn2)CC1, the IC50 [1] was over 300 nM, the IC50 [2] was over 300 nM and the IC50 [3] was under 0.949 nM. The IC50 [4] was under 0.949 nM, the IC50 [5] was under 0.949 nM and the IC50 [6] was under 0.949 nM. The viability, T/C (second compound 0.0316 µM, first compound 0.000949 µM) was 102%, the viability, T/C (second compound 0.0316 µM, first compound 0.003 µM) was 111% and the viability, T/C (second compound 0.0316 µM, first compound 0.00949 µM) was 100%. The viability, T/C (second compound 0.0316 µM, first compound 0.03 µM) was 81.4%, the viability, T/C (second compound 0.0316 µM, first compound 0.0949 µM) was 116% and the viability, T/C (second compound 0.0316 µM, first compound 0.3 µM) was 137%. For the same compound, the viability, T/C (second compound 0.1 µM, first compound 0.000949 µM) was 157%, the viability, T/C (second compound 0.1 µM, first compound 0.003 µM) was 163% and the viability, T/C (second compound 0.1 µM, first compound 0.00949 µM) was 152%. It also gave a viability, T/C (second compound 0.1 µM, first compound 0.03 µM) of 179%, a viability, T/C (second compound 0.1 µM, first compound 0.0949 µM) of 120% and a viability, T/C (second compound 0.1 µM, first compound 0.3 µM) of 106%. It also gave a viability, T/C (second compound 0.316 µM, first compound 0.000949 µM) of 4.91%, a viability, T/C (second compound 0.316 µM, first compound 0.003 µM) of 4.6% and a viability, T/C (second compound 0.316 µM, first compound 0.00949 µM) of 2.55%. It also gave a viability, T/C (second compound 0.316 µM, first compound 0.03 µM) of 3.23%, a viability, T/C (second compound 0.316 µM, first compound 0.0949 µM) of 2.33% and a viability, T/C (second compound 0.316 µM, first compound 0.3 µM) of 3.21%. The viability, T/C (second compound 1 µM, first compound 0.000949 µM) was 0.14%, the viability, T/C (second compound 1 µM, first compound 0.003 µM) was 0.99% and the viability, T/C (second compound 1 µM, first compound 0.00949 µM) was 0.15%. The viability, T/C (second compound 1 µM, first compound 0.03 µM) was 0.13%, the viability, T/C (second compound 1 µM, first compound 0.0949 µM) was 0.11% and the viability, T/C (second compound 1 µM, first compound 0.3 µM) was 0.14%. It also gave a viability, T/C (second compound 3.16 µM, first compound 0.000949 µM) of 0.4%, a viability, T/C (second compound 3.16 µM, first compound 0.003 µM) of 1.42% and a viability, T/C (second compound 3.16 µM, first compound 0.00949 µM) of 1.1%. For the same compound, the viability, T/C (second compound 3.16 µM, first compound 0.03 µM) was 0.23%, the viability, T/C (second compound 3.16 µM, first compound 0.0949 µM) was 2.07% and the viability, T/C (second compound 3.16 µM, first compound 0.3 µM) was 1.52%. The viability, T/C (second compound 10 µM, first compound 0.000949 µM) was 0.82%, the viability, T/C (second compound 10 µM, first compound 0.003 µM) was 0.35% and the viability, T/C (second compound 10 µM, first compound 0.00949 µM) was 1%. It also gave a viability, T/C (second compound 10 µM, first compound 0.03 µM) of 1.25%, a viability, T/C (second compound 10 µM, first compound 0.0949 µM) of 0.32% and a viability, T/C (second compound 10 µM, first compound 0.3 µM) of 0.26%.
With `CCc1c2c(nc3ccc(O)cc13)-c1cc3c(c(=O)n1C2)COC(=O)[C@]3(O)CC` the viability, T/C (compound 0.00316 µM) was 120% and 84.1%, the viability, T/C (compound 0.01 µM) was 34.2% and 32% and the viability, T/C (compound 0.0316 µM) was 23.7% and 20.8%. The viability, T/C (compound 0.1 µM) was 18.7% and 19%, the viability, T/C (compound 0.316 µM) was 8.36% and 8.83% and the viability, T/C (compound 1 µM) was 3.07% and 3.43%. For the same compound, the IC50 (curve of compound) was 8.48 nM and 7.07 nM.
With `O=c1[nH]cc(F)c(=O)[nH]1` + CN1CCN(c2cc(C(=O)Nc3cc4cc(-c5cnn(C)c5)ccc4cn3)ccn2)CC1 the IC50 [1] was 8260 nM, the IC50 [2] was 6150 nM and the IC50 [3] was under 31.6 nM. It also gave an IC50 [4] of under 31.6 nM, an IC50 [5] of under 31.6 nM and an IC50 [6] of under 31.6 nM. The viability, T/C (second compound 0.0316 µM, first compound 0.0316 µM) was 124%, the viability, T/C (second compound 0.0316 µM, first compound 0.1 µM) was 113% and the viability, T/C (second compound 0.0316 µM, first compound 0.316 µM) was 103%. It also gave a viability, T/C (second compound 0.0316 µM, first compound 1 µM) of 143%, a viability, T/C (second compound 0.0316 µM, first compound 3.16 µM) of 83.8% and a viability, T/C (second compound 0.0316 µM, first compound 10 µM) of 43.2%. It also gave a viability, T/C (second compound 0.1 µM, first compound 0.0316 µM) of 150%, a viability, T/C (second compound 0.1 µM, first compound 0.1 µM) of 167% and a viability, T/C (second compound 0.1 µM, first compound 0.316 µM) of 159%. It also gave a viability, T/C (second compound 0.1 µM, first compound 1 µM) of 166%, a viability, T/C (second compound 0.1 µM, first compound 3.16 µM) of 69.1% and a viability, T/C (second compound 0.1 µM, first compound 10 µM) of 36%. For the same compound, the viability, T/C (second compound 0.316 µM, first compound 0.0316 µM) was 4.49%, the viability, T/C (second compound 0.316 µM, first compound 0.1 µM) was 7.16% and the viability, T/C (second compound 0.316 µM, first compound 0.316 µM) was 4.59%. The viability, T/C (second compound 0.316 µM, first compound 1 µM) was 5.49%, the viability, T/C (second compound 0.316 µM, first compound 3.16 µM) was 4.38% and the viability, T/C (second compound 0.316 µM, first compound 10 µM) was 3.92%. It also gave a viability, T/C (second compound 1 µM, first compound 0.0316 µM) of 0.14%, a viability, T/C (second compound 1 µM, first compound 0.1 µM) of 0.31% and a viability, T/C (second compound 1 µM, first compound 0.316 µM) of 1.1%. For the same compound, the viability, T/C (second compound 1 µM, first compound 1 µM) was 0.1%, the viability, T/C (second compound 1 µM, first compound 3.16 µM) was 2.13% and the viability, T/C (second compound 1 µM, first compound 10 µM) was 0.12%. The viability, T/C (second compound 3.16 µM, first compound 0.0316 µM) was 0.24%, the viability, T/C (second compound 3.16 µM, first compound 0.1 µM) was 1.5% and the viability, T/C (second compound 3.16 µM, first compound 0.316 µM) was 0.14%. The viability, T/C (second compound 3.16 µM, first compound 1 µM) was 0.16%, the viability, T/C (second compound 3.16 µM, first compound 3.16 µM) was 0.18% and the viability, T/C (second compound 3.16 µM, first compound 10 µM) was 2.35%. It also gave a viability, T/C (second compound 10 µM, first compound 0.0316 µM) of 0.67%, a viability, T/C (second compound 10 µM, first compound 0.1 µM) of 0.21% and a viability, T/C (second compound 10 µM, first compound 0.316 µM) of 0.25%. For the same compound, the viability, T/C (second compound 10 µM, first compound 1 µM) was 0.21%, the viability, T/C (second compound 10 µM, first compound 3.16 µM) was 1.51% and the viability, T/C (second compound 10 µM, first compound 10 µM) was 0.31%.
